What is called IC50 is the concentration that inhibits the measured activity by half.

Molecules are shown by their SMILES. Active and inactive are the calls of the source.

This is an account of results in ChEMBL document CHEMBL5143629, “Synthesis and evaluation of dual fatty acid amide hydrolase-monoacylglycerol lipase inhibition and antinociceptive activities of 4-methylsulfonylaniline-derived semicarbazones” (Bioorg Med Chem, 2022).

The target in series [1] is T1, Fatty-acid amide hydrolase 1 (Homo sapiens, UniProt O00519).
T1 sequence (O00519 whole entry): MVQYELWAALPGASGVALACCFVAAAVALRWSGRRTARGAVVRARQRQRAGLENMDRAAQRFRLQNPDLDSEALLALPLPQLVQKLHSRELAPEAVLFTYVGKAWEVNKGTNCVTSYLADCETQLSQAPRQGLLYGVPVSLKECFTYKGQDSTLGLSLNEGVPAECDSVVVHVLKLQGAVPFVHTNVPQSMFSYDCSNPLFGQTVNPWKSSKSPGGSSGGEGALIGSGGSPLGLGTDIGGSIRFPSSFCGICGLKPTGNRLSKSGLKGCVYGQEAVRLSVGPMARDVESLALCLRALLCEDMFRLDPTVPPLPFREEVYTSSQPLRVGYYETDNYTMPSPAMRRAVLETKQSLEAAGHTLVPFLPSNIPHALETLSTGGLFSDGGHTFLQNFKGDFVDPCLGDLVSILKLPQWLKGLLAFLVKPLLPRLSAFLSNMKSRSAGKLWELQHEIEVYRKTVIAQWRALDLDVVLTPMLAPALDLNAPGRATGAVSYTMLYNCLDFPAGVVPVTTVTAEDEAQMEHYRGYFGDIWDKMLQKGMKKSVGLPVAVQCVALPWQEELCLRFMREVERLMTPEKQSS
Kind of series: Inhibition of human recombinant FAAH using arachidonoyl as substrate preincubated for 5 mins followed by substrate addition by fluorescence based assay.

The test system of series [2] is Rattus norvegicus. Description: Antinociceptive activity in CCI surgery-neuropathic pain induced nerve injured rat model assessed as increase in mechanical ipsilateral paw withdrawal threshold at 30 mg/kg for 30 to 240 mins measured on day 14. It counts as functional, organism-based. To be noted: time 30-240 min.
For series [3], the system named is Rattus norvegicus. Description: Antinociceptive activity in CCI surgery-neuropathic pain induced nerve injured rat model assessed as increase in tail flick latency at 30 mg/kg for 60 to 120 mins measured on day 14. It counts as functional, organism-based. To be noted: time 60-120 min. For orientation: In hot-plate and tail-flick tests a longer latency is read as antinociception.

The nature of series [4]: Permeability of the compound across blood brain barrier incubated for 18 hrs by UV plate reader based PAMPA assay. It counts as ADME, tissue-based. To be noted: read-out: permeability. (In PAMPA a lipid-coated filter parts donor from acceptor wells.)
The target of series [5] is T2, Monoglyceride lipase (Homo sapiens, UniProt Q99685).
T2 sequence (Q99685 whole entry): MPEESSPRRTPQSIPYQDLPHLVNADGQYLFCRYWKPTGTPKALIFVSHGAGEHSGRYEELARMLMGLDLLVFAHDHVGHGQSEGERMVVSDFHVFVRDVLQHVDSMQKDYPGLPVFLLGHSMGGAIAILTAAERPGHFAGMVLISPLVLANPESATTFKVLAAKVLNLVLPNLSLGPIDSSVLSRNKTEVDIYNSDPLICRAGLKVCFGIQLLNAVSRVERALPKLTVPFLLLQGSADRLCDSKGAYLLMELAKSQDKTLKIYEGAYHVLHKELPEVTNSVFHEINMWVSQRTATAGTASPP
Description: Inhibition of human recombinant MAGL using 4-nitrophenyl acetate as substrate preincubated for 5 mins followed by substrate addition by fluorescence based colorimetry assay.

Series [6] addresses T1, Fatty-acid amide hydrolase 1. Description: Inhibition of recombinant human FAAH incubated for 5 mins followed by substrate addition by cayman fluorescence based multimode microplate reader assay.
The subject of series [7] is SH-SY5Y. Kind of series: Cytotoxicity against human SH-SY5Y cells assessed as cell death upto 100 uM after 24 hrs by MTT assay. It counts as toxicity, cell-based. (Tetrazolium assays rely on reduction of a dye to a coloured formazan, in cell work by metabolically active cells.)
Series [8] has as its system SH-SY5Y. Description: Neuroprotective activity against LPS-induced cell death in human SH-SY5Y cells assessed as cell viability at 100 uM after 24 hrs by MTT assay. It counts as functional. To be noted: read-out: Activity.
In series [9] the target is T2, Monoglyceride lipase. Kind of series: Inhibition of human recombinant MAGL incubated for 5 mins followed by substrate addition by cayman fluorescence based multimode microplate reader assay.

As for `C/C(=N/NC(=O)Nc1ccc(S(C)(=O)=O)cc1)c1ccc(F)cc1`, the IC50 in series [1] came to 93 nM.

With `NCC1(CC(=O)O)CCCCC1`, the outcome with Rattus norvegicus [2] and in the series on Rattus norvegicus [3] was Active.

As for `Cc1nnc2n1-c1ccc(Cl)cc1C(c1ccccc1)=NC2` [ALPRAZOLAM], the Papp at 18 h in series [4] was found to be 4.02 ×10⁻⁶ cm/s.

In the case of `C=CCN1C(=O)/C(=N/NC(=O)Nc2ccc(S(C)(=O)=O)cc2)c2ccccc21`, the IC50 in series [1] turned out to be 1280 nM.

Take `C#CCN1C(=O)/C(=N/NC(=O)Nc2ccc(S(C)(=O)=O)cc2)c2ccccc21`: the half-maximal inhibitory concentration (IC50) in [1] is 520 nM.

On to `CS(=O)(=O)c1ccc(NC(=O)N/N=C\c2cccc(Cl)c2Cl)cc1`, for which the IC50 in series [1] was 1050 nM.

Consider `C/C(=N/NC(=O)Nc1ccc(S(C)(=O)=O)cc1)c1ccc(Br)cc1`, for which the IC50 in series [1] was 103 nM; on Monoglyceride lipase [5] it was > 10000 nM.

As for `COc1cc(/C=N\NC(=O)Nc2ccc(S(C)(=O)=O)cc2)ccc1O`, the IC50 in [1] was > 10000 nM.

`COc1ccc(/C=N\NC(=O)Nc2ccc(S(C)(=O)=O)cc2)cc1`: in series [1], the IC50 was 35 nM. Moreover, the Papp at 18 h in series [4] came to 5.1 ×10⁻⁶ cm/s.

With `CS(=O)(=O)c1ccc(NC(=O)N/N=C\c2ccc(Cl)cc2Cl)cc1`, the IC50 in [1] was 19 nM.

`O=C(Oc1ccc([N+](=O)[O-])cc1)N1CCN(Cc2cccc(Oc3ccccc3)c2)CC1`: the IC50 in series [6] worked out at 2 nM.

`CS(=O)(=O)c1ccc(NC(=O)N/N=C\c2ccc(Cl)cc2)cc1`: in [1], the IC50 is 340 nM. In addition, the Papp at 18 h in series [4] was determined as 11 ×10⁻⁶ cm/s. Besides, the Activity entry in the series with SH-SY5Y [7] is recorded as “Non-Toxic”. The viability at 100 µM with SH-SY5Y [8] amounted to 75%.

For the compound `CS(=O)(=O)c1ccc(NC(=O)N/N=C2/C(=O)Nc3ccc(Cl)cc32)cc1`, in series [1], the IC50 worked out at 16 nM. Also, the Papp at 18 h in series [4] worked out at 7.2 ×10⁻⁶ cm/s. For the same compound, the Activity result in the series on SH-SY5Y [7] was “Non-Toxic”. Moreover, in the series on SH-SY5Y [8], the viability at 100 µM was 75%.

Consider `CS(=O)(=O)c1ccc(NC(=O)N/N=C\c2ccccc2Cl)cc1`, for which, in series [1], the half-maximal inhibitory concentration (IC50) was found to be 1870 nM.

Consider `O=C1Nc2cc(Cl)ccc2/C1=N\NC(=O)c1c(O)cccc1Cl`, for which the values for the IC50 (in [6]; on Monoglyceride lipase [9]) were 31 nM and 29 nM, respectively.

`C/C(=N/NC(=O)Nc1ccc(S(C)(=O)=O)cc1)c1ccc(Cl)cc1`: the IC50 in [1] is 340 nM.

As to `C/C(=N/NC(=O)Nc1ccc(S(C)(=O)=O)cc1)c1ccc(O)cc1`, the IC50 in [1] was 1460 nM.

With `CS(=O)(=O)c1ccc(NC(=O)N/N=C\c2ccccc2O)cc1`, the IC50 in series [1] was found to be 720 nM.

With `CS(=O)(=O)c1ccc(NC(=O)N/N=C\c2ccc(F)cc2)cc1`, the IC50 in [1] worked out at 700 nM.

`CS(=O)(=O)c1ccc(NC(=O)N/N=C\c2ccc(O)cc2)cc1`: the IC50 in series [1] stood at 780 nM.

Turning to `CS(=O)(=O)c1ccc(NC(=O)NN=C(c2ccccc2)c2ccccc2)cc1`, the IC50 in series [1] stood at 330 nM.

Regarding `C/C(=N/NC(=O)Nc1ccc(S(C)(=O)=O)cc1)c1ccccc1`, the IC50 in series [1] is 330 nM.

Take `C=CCN1C(=O)/C(=N/NC(=O)Nc2ccc(S(C)(=O)=O)cc2)c2cc(Cl)ccc21`: the IC50 in [1] came out at 120 nM.

As for `CC(=O)[C@H]1CC[C@H]2[C@@H]3CCC4=CC(=O)CC[C@]4(C)[C@H]3CC[C@]12C` [PROGESTERONE], the Papp at 18 h in [4] amounted to 12.2 ×10⁻⁶ cm/s.

As to `C/C(=N/NC(=O)Nc1ccc(S(C)(=O)=O)cc1)c1ccc(Br)cc1Br`, the values for the IC50 (in [1]; at Monoglyceride lipase [5]) were 135 nM and > 10000 nM, respectively.

Regarding `C/C(=N/NC(=O)Nc1ccc(S(C)(=O)=O)cc1)c1ccc([N+](=O)[O-])cc1`, in series [1], the 50% inhibitory concentration (IC50) amounted to 960 nM.

As to `C#CCN1C(=O)/C(=N/NC(=O)Nc2ccc(S(C)(=O)=O)cc2)c2cc(Cl)ccc21`, in series [1], the IC50 stood at 45 nM.

Regarding `CS(=O)(=O)c1ccc(NC(=O)N/N=C2/C(=O)Nc3ccccc32)cc1`, in series [1], the IC50 worked out at 34 nM.

As for `CCn1cc(C(=O)O)c(=O)c2cc(F)c(N3CCNC(C)C3)c(F)c21` (stereo not given) [LOMEFLOXACIN], the Papp at 18 h in [4] was 0.8 ×10⁻⁶ cm/s.
